Tested on: Human umbilical vein endothelial cells (HUVEC)
Assay: Evaluation of NO-production-promoting activity (NO2/NO3 Assay Kit-FX)
Type: cell-based
Conditions: 24 hours, sample solution 10 to 1000 μg/mL in medium containing 1% DMSO, culture supernatant
Experimental: The purple-tea sample and the GHG sample obtained in the above example were dissolved in a medium containing 1% DMSO (concentration: 10 to 1000 μg/mL) to prepare a sample solution. A medium containing 1% DMSO was used for a control.
Human umbilical vein endothelial cells (HUVEC) (6.2×10^4 cells/500 μL) were seeded in 24-well plates, pre cultured for 1 day, then the medium was changed (450 μl). After that, a sample solution of 50 μL was added to each well to react for 24 hours. After the reaction, the culture supernatant was subjected to a measurement of a NO-production amount. For the measurement of the NO-production amount, “NO2/NO3 Assay Kit-FX” (trade name, manufactured by Dojindo Molecular Technologies, Inc.) was used. The results are shown in FIG. 2 (purple-tea extract) and FIG. 3 (GHG).
The NO2/NO3 Assay Kit-FX is a kit used for indirectly measuring NO in a sample by the fluorescence method, using the reaction between NO2^− and DAN (2,3-Diaminonaphthalene).

O=C(OC1OC2COC(=O)c3cc(O)c(O)c(O)c3-c3c(cc(O)c(O)c3O)C(=O)OC2C(O)C1OC(=O)c1cc(O)c(O)c(O)c1)c1cc(O)c(O)c(O)c1 [GHG, 1,2-di-O-galloyl-4,6-O-(S)-hexahydroxydiphenoyl-β-D-glucose]
NO-production promoting effect (NO2−, NO3− and NO total production): has a NO3− and a NO-total production-promoting effect
